{"source": "the NIST ThermoML archive (doi:10.1021/je700088n)", "key": {"[1]": {"test": "Molar enthalpy of transition or fusion", "conditions": "Crystal; DSC"}, "[2]": {"conditions": "Crystal; for mass density: 298.1 K, 101.33 kPa, digital densimeter; for Normal melting temperature: DTA"}}, "note": "± gives the expanded uncertainty stated by the source.", "data": [{"compound": "Cc1cc2ccccc2cc1C", "note": "[2,3-dimethylnaphthalene]", "values": [{"measurement": "Molar enthalpy of transition or fusion", "setting": "[1]", "value": "5.73 ± 0.167", "unit": "kcal/mol"}, {"measurement": "mass density", "setting": "[2]", "value": "1012 ± 10", "unit": "kg/m3"}, {"measurement": "Normal melting temperature", "setting": "[2]", "value": "104.00 ± 0.5", "unit": "°C"}]}, {"compound": "Cc1ccc(C)c2ccccc12", "note": "[1,4-dimethylnaphthalene]", "values": [{"measurement": "Molar enthalpy of transition or fusion", "setting": "[1]", "value": "2.53 ± 0.0884", "unit": "kcal/mol"}, {"measurement": "Normal melting temperature", "setting": "[2]", "value": "6.00 ± 0.5", "unit": "°C"}]}, {"compound": "Cc1cccc2cccc(C)c12", "note": "[1,8-dimethylnaphthalene]", "values": [{"measurement": "Molar enthalpy of transition or fusion", "setting": "[1]", "value": "4.43 ± 0.134", "unit": "kcal/mol"}, {"measurement": "Normal melting temperature", "setting": "[2]", "value": "65.00 ± 0.5", "unit": "°C"}]}, {"compound": "Cc1ccc2ccccc2c1", "note": "[2-methylnaphthalene]", "values": [{"measurement": "Normal melting temperature", "setting": "[2]", "value": "34.70 ± 0.5", "unit": "°C"}]}, {"compound": "Cc1ccc2ccc(C)cc2c1", "note": "[2,7-dimethylnaphthalene]", "values": [{"measurement": "Molar enthalpy of transition or fusion", "setting": "[1]", "value": "5.31 ± 0.158", "unit": "kcal/mol"}, {"measurement": "mass density", "setting": "[2]", "value": "1010 ± 10", "unit": "kg/m3"}, {"measurement": "Normal melting temperature", "setting": "[2]", "value": "97.00 ± 0.5", "unit": "°C"}]}, {"compound": "Cc1ccc2cc(C)ccc2c1", "note": "[2,6-dimethylnaphthalene]", "values": [{"measurement": "Molar enthalpy of transition or fusion", "setting": "[1]", "value": "6.05 ± 0.174", "unit": "kcal/mol"}, {"measurement": "mass density", "setting": "[2]", "value": "1021 ± 10", "unit": "kg/m3"}, {"measurement": "Normal melting temperature", "setting": "[2]", "value": "112.00 ± 0.5", "unit": "°C"}]}, {"compound": "Cc1ccc2c(C)cccc2c1", "note": "[1,6-dimethylnaphthalene]", "values": [{"measurement": "Molar enthalpy of transition or fusion", "setting": "[1]", "value": "2.03 ± 0.0741", "unit": "kcal/mol"}, {"measurement": "Normal melting temperature", "setting": "[2]", "value": "-16.20 ± 0.5", "unit": "°C"}]}, {"compound": "Cc1cccc2c(C)cccc12", "note": "[1,5-dimethylnaphthalene]", "values": [{"measurement": "Molar enthalpy of transition or fusion", "setting": "[1]", "value": "4.78 ± 0.143", "unit": "kcal/mol"}, {"measurement": "Normal melting temperature", "setting": "[2]", "value": "82.00 ± 0.5", "unit": "°C"}]}, {"compound": "Cc1cccc2ccccc12", "note": "[1-methylnaphthalene]", "values": [{"measurement": "Normal melting temperature", "setting": "[2]", "value": "-30.9 ± 0.5", "unit": "°C"}]}]}
